Measurements as given in patent publication US12435044B2, “Pyridazinone herbicides and pyridazinone intermediates used to prepare a herbicide” (FMC Corporation, priority 2018, dated 2025).

Legend:
Assay type in all cases: in vivo
[1] = system: sedge, umbrella (small-flower umbrella sedge, Cyperus difformis); assay: Test C flooded paddy test; details: Flood, scale 0 to 100
Excerpt: (§1) Plant species in the flooded paddy test consisted of rice (transplanted and water seeded, Oryza sativa), sedge, umbrella (small-flower umbrella sedge, Cyperus difformis), ducksalad (Heteranthera limosa), Bulrush, Japanese (Scirpus juncoides) and barnyardgrass (Echinochloa crus-galli) grown to the 2-leaf stage for testing. At time of treatment, test pots were flooded to 3 cm above the soil surface, treated by application of test compounds directly to the paddy water, and then maintained at that water depth for the duration of the test. Treated plants and controls were maintained in a greenhouse for 13 to 15 d, after which time all species were compared to controls and visually evaluated. Plant response ratings, summarized in Table C are based on a scale of 0 to 100 where 0 is no effect and 100 is complete control. A dash (-) response means no test result.

[2] = system: ducksalad (Heteranthera limosa); assay: Test C flooded paddy test; details: Flood, scale 0 to 100
Excerpt: as §1

[3] = system: barnyardgrass (Echinochloa crus-galli); assay: Test C flooded paddy test; details: Flood, scale 0 to 100
Excerpt: as §1

[4] = system: rice (transplanted and water seeded, Oryza sativa); assay: Test C flooded paddy test; details: Flood, scale 0 to 100
Excerpt: as §1

[5] = system: poinsettia, wild (Euphorbia heterophylla); assay: Test C pre-/postemergence greenhouse test; details: Preemergence, scale 0 to 100
Summary of the method: (§2)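 Test chemicals in a non-phytotoxic solvent mixture with surfactant; preemergence on seeds sown in silt loam, postemergence on plants 2–18 cm tall (1- to 4-leaf stage) in peat/vermiculite medium. Greenhouse for 13–21 d, then visual rating against untreated controls, 0 (no effect) to 100 (complete control).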

[6] = system: lambsquarters (Chenopodium album); assay: Test C pre-/postemergence greenhouse test; details: Preemergence, scale 0 to 100
Summary of the method: as §2

[7] = system: pigweed, palmer (Amaranthus palmeri); assay: Test C pre-/postemergence greenhouse test; details: scale 0 to 100
Summary of the method: as §2

[8] = system: blackgrass (Alopecurus myosuroides); assay: Test C pre-/postemergence greenhouse test; details: scale 0 to 100
Summary of the method: as §2

[9] = system: windgrass (Apera spica-venti); assay: Test C pre-/postemergence greenhouse test; details: Preemergence, scale 0 to 100
Summary of the method: as §2

[10] = system: nutsedge, yellow (Cyperus esculentus); assay: Test C pre-/postemergence greenhouse test; details: Preemergence, scale 0 to 100
Summary of the method: as §2

[11] = system: oat, wild (Avena fatua); assay: Test C pre-/postemergence greenhouse test; details: scale 0 to 100
Summary of the method: as §2

For `Cc1ccc2ccc(F)cc2c1-c1c(O)c(Cl)nn(C)c1=O` [Cpd. No. 21], the “Plant response rating, Sedge, Umbrella” value ([1]; 31 g ai/ha) was 0, the “Plant response rating, Sedge, Umbrella” value ([1]; 62 g ai/ha) was 0 and the “Plant response rating, Sedge, Umbrella” value ([1]; 125 g ai/ha) was 0. The “Plant response rating, Sedge, Umbrella” value ([1]; 250 g ai/ha) was 0, the “Plant response rating, Ducksalad” value ([2]; 31 g ai/ha) was 0 and the “Plant response rating, Ducksalad” value ([2]; 62 g ai/ha) was 30. For the same compound, the “Plant response rating, Ducksalad” value ([2]; 125 g ai/ha) was 80, the “Plant response rating, Ducksalad” value ([2]; 250 g ai/ha) was 85 and the “Plant response rating, Barnyardgrass” value ([3]; 31 g ai/ha) was 0. The “Plant response rating, Barnyardgrass” value ([3]; 62 g ai/ha) was 0, the “Plant response rating, Barnyardgrass” value ([3]; 125 g ai/ha) was 30 and the “Plant response rating, Barnyardgrass” value ([3]; 250 g ai/ha) was 65. The “Plant response rating, Rice, Transplanted” value (shortened to “Plant response rating, Rice”) ([4]; 31 g ai/ha) was 0, the “Plant response rating, Rice” value ([4]; 62 g ai/ha) was 0 and the “Plant response rating, Rice” value ([4]; 125 g ai/ha) was 0. For the same compound, the “Plant response rating, Rice” value ([4]; 250 g ai/ha) was 15, the “Plant response rating, Poinsettia, Wild” value ([5]; 31 g ai/ha) was 5 and the “Plant response rating, Poinsettia, Wild” value ([5]; 61 g ai/ha) was 0. The “Plant response rating, Poinsettia, Wild” value ([5]; 62 g ai/ha) was 10, the “Plant response rating, Poinsettia, Wild” value ([5]; 125 g ai/ha) was 25 and the “Plant response rating, Lambsquarters” value ([6]; 31 g ai/ha) was 70. The “Plant response rating, Lambsquarters” value ([6]; 61 g ai/ha) was 75, the “Plant response rating, Lambsquarters” value ([6]; 62 g ai/ha) was 85 and the “Plant response rating, Lambsquarters” value ([6]; 125 g ai/ha) was 98. For the same compound, the “Plant response rating, Pigweed, Palmer” value ([7]; Postemergence, 16 g ai/ha) was 30, the “Plant response rating, Pigweed, Palmer” value ([7]; Postemergence, 31 g ai/ha) was 30 and the “Plant response rating, Pigweed, Palmer” value ([7]; Postemergence, 62 g ai/ha) was 30. For the same compound, the “Plant response rating, Pigweed, Palmer” value ([7]; Postemergence, 125 g ai/ha) was 95, the “Plant response rating, Pigweed, Palmer” value ([7]; Preemergence, 31 g ai/ha) was 55 and the “Plant response rating, Pigweed, Palmer” value ([7]; Preemergence, 61 g ai/ha) was 20. The “Plant response rating, Pigweed, Palmer” value ([7]; Preemergence, 62 g ai/ha) was 70, the “Plant response rating, Pigweed, Palmer” value ([7]; Preemergence, 125 g ai/ha) was 90 and the “Plant response rating, Blackgrass” value ([8]; Postemergence, 16 g ai/ha) was 35. For the same compound, the “Plant response rating, Blackgrass” value ([8]; Postemergence, 31 g ai/ha) was 60, the “Plant response rating, Blackgrass” value ([8]; Postemergence, 62 g ai/ha) was 65 and the “Plant response rating, Blackgrass” value ([8]; Postemergence, 125 g ai/ha) was 70. The “Plant response rating, Blackgrass” value ([8]; Preemergence, 31 g ai/ha) was 50, the “Plant response rating, Blackgrass” value ([8]; Preemergence, 61 g ai/ha) was 35 and the “Plant response rating, Blackgrass” value ([8]; Preemergence, 62 g ai/ha) was 85. For the same compound, the “Plant response rating, Blackgrass” value ([8]; Preemergence, 125 g ai/ha) was 85, the “Plant response rating, Windgrass” value ([9]; 31 g ai/ha) was 75 and the “Plant response rating, Windgrass” value ([9]; 61 g ai/ha) was 50. The “Plant response rating, Windgrass” value ([9]; 62 g ai/ha) was 85, the “Plant response rating, Windgrass” value ([9]; 125 g ai/ha) was 98 and the “Plant response rating, Nutsedge, Yellow” value ([10]; 31 g ai/ha) was 60. The “Plant response rating, Nutsedge, Yellow” value ([10]; 61 g ai/ha) was 30, the “Plant response rating, Nutsedge, Yellow” value ([10]; 62 g ai/ha) was 85 and the “Plant response rating, Nutsedge, Yellow” value ([10]; 125 g ai/ha) was 95. For the same compound, the “Plant response rating, Oat, Wild” value ([11]; Postemergence, 16 g ai/ha) was 95, the “Plant response rating, Oat, Wild” value ([11]; Postemergence, 31 g ai/ha) was 98 and the “Plant response rating, Oat, Wild” value ([11]; Postemergence, 62 g ai/ha) was 99. The “Plant response rating, Oat, Wild” value ([11]; Postemergence, 125 g ai/ha) was 100, the “Plant response rating, Oat, Wild” value ([11]; Preemergence, 31 g ai/ha) was 70 and the “Plant response rating, Oat, Wild” value ([11]; Preemergence, 61 g ai/ha) was 45. The “Plant response rating, Oat, Wild” value ([11]; Preemergence, 62 g ai/ha) was 85 and the “Plant response rating, Oat, Wild” value ([11]; Preemergence, 125 g ai/ha) was 85.
